≈ marks a conversion by molar mass, not a printed value. Read-outs that look alike come from different tables or passages of the source.
What was measured:
[1] = tested on: cypris larvae of Amphibalanus amphitrite; experiment: whole plant or invertebrate; type: in vivo; details: for EC50: Amphibalanus amphitrite, 48 h, read-out: EC50 of attachment•metamorphosis of cypris larvae
Experimental: (§1) Adult samples of Amphibalanus amphitrite collected from Lake Hamanako, Shizuoka-ken in the breeding season (May to November in Hamanakako) were subject to drying stimulus for about 12 hours (drying stimulus refers to taking out barnacles out of the breeding water and let them dry), and then they were put into a water bath, thereby allowing eggs to hatch into nauplius larvae (if the adults are not in a breeding season, they are subject to food satiation breeding for about two weeks at a water temperature of 20° C. to 25° C., and after subjecting to drying stimulus for about 12 hours, they are housed in a water bath to allow eggs to hatch into nauplius larvae). […] At 5th day of breeding, the nauplius larvae metamorphosed into cypris larvae, which were collected using light or the like and refrigerated (4° C.) for two days, and then used for attachment•metamorphosis inhibition tests.
(§2) Into a 24-well multi plate made of polystyrene (Corning, Inc.) was put an ethanol solution in which a methanol extract of red algae laurencia sp. of the present invention or the compound of the present invention was dissolved, and allowed to dry, followed by charging of 2 mL filtered seawater. Six individual cypris larvae of Amphibalanus amphitrite were put into each well and bred at 25° C. for two to five days, and the number of individuals that metamorphosed from cypris larvae into barnacle immatures while attaching to the plate surface, the number of individuals not attached thereto and still swimming as cypris larvae, and the number of dead individuals were counted under a stereoscopic microscope. The tests were conducted using four wells each for a same concentration of the compound of the present invention, and the tests were repeated three or more times. […] Furthermore, the concentration at which the ratio of the number of attaching•metamorphosing individuals to the number of all the subject individuals after 2 days is one-half in comparison with the case not having the compounds of the present invention, was represented by EC50. Concentrations (μg/ml) were represented by the value obtained by dividing the amount of the methanol extract of red algae laurencia sp. (μg) or the amount of the compound (μg) added per well by 2 mL of filtered seawater added per well.

[2] = tested on: barnacle; details: reported in Non-Patent Documents 1 and 2; cited from earlier work
[3] = in vivo; type: in vivo; details: Amphibalanus amphitrite (barnacle, cypris larvae), in vivo; concentration at which dead individuals after 5 days account for 50% of all individuals; read-out: LC50 (toxicity to larvae)
Experimental: as §1, §2

[4] = Non-Patent Document 7; cited from earlier work
[5] = after 2 days, concentration at which ratio of attaching•metamorphosing individuals is one-half of the case without compound, 25° C., 24-well plate, 2 mL filtered seawater

CC[C@@H]1[C@@H]2[C@H]3OC(C=C=CBr)C[C@H]3O[C@]2(O)[C@@H](Br)C[C@H]1Br (stereo partly drawn) [Hachijojimallene A]
EC50 of attachment•metamorphosis of cypris larvae [1, 5]: 0.15 µg/mL | LC50 (toxicity to larvae) ([1]; concentration at which dead individuals after 5 days account for 50% of all individuals): 9.8 µg/mL (≈ 20.1 µM)

C=C1C[C@H](O)[C@H](Br)C(C)(C)[C@]12CC=C(C)CC2 [deschloroelatol]
barnacle attachment inhibitory activity [2]: have a barnacle attachment inhibitory activity

C=C1C[C@H](O)[C@H](Br)C(C)(C)[C@@]12CCC(C)=C(Cl)C2 [elatol]
barnacle attachment inhibitory activity [2]: have a barnacle attachment inhibitory activity

CC(C)=CCC[C@@](C)(O)[C@@H](O)CC[C@](C)(O)[C@H]1CC[C@H]2O[C@@H]([C@]3(C)CC[C@@H](Br)C(C)(C)O3)CC[C@]2(C)O1 [Magireol A]
LC50 at 5 days [3]: 14.4 µg/mL (≈ 24.4 µM) | EC50 [1]: 0.3 µg/mL (≈ 0.509 µM)

Cc1cc(O)c([C@]2(C)CC[C@@H]3C[C@@]32C)cc1Br [laurinterol]
barnacle attachment inhibitory activity [2]: possess a barnacle attachment inhibitory activity

C#C/C=C/C[C@@H](OC(C)=O)[C@H]1C/C=C\C[C@H](Br)[C@@H](CC)O1 [Laurencin]
EC50 of attachment•metamorphosis of cypris larvae [1, 5]: 0.23 µg/mL | toxicity to larvae ([1]; at 100 μg/mL): no toxicity at all

C=C1[C@@H](C)CC[C@@]1(C)c1cc(Br)c(C)cc1O [isolaurinterol]
barnacle attachment inhibitory activity [2]: possess a barnacle attachment inhibitory activity

CC/C(Br)=C\C=C\[C@@H](O)[C@H](Br)[C@@H]1O[C@@H](C=C=CBr)C[C@@H]1O [Omaezallene]
LC50 at 5 days [3]: 3.4 µg/mL (≈ 6.98 µM) | EC50 [1, 5]: 0.22 µg/mL

CC(C)(O)[C@H]1CC[C@](C)([C@@H](O)CC[C@](C)(O)[C@H]2CC[C@H]3O[C@@H]([C@]4(C)CC[C@@H](Br)C(C)(C)O4)CC[C@]3(C)O2)O1 [Thyrsiferol]
LC50 at 5 days [3]: 2.5 µg/mL (≈ 4.13 µM) | EC50 [1]: 0.11 µg/mL (≈ 0.182 µM) | cytotoxicity [4]: known to have cytotoxicity

— patent US8258178B2, “Agents for preventing attachment of barnacle consisting of organic solvent extracts of red alga Laurencia sp. and compounds isolated therefrom” (Central Research Institute of Electric Power Industry, priority 2007, dated 2012)
